Results taken from ChEMBL document CHEMBL1144129, “Isolation of xestosterol esters of brominated acetylenic fatty acids from the marine sponge xestospongia testudinaria” (J Nat Prod, 1999).
pIC50: −log10 of the molar value.

Target: T1, Adenosine receptor A1 (Rattus norvegicus, UniProt P25099)
T1 sequence (P25099 whole entry): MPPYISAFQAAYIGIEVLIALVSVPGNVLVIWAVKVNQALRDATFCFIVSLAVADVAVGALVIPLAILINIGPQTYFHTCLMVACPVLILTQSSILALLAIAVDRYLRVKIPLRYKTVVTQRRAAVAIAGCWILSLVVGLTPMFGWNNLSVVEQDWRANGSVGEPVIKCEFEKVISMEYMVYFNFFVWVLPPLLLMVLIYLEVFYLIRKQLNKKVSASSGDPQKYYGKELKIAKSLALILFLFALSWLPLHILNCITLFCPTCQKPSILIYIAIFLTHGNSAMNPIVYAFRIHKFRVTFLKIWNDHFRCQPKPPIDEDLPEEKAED
Assay: Displacement of [3H]DPCPX from rat brain adenosine A1 receptor

pIC50: 3.97
Compound: O=C(O)CCCCCC#C/C=C/CCCCC#C/C=C/Br
